Reference: the NIST ThermoML archive (doi:10.1016/j.jct.2015.07.048)

Assays:
[1] = xn = mol fraction of the nth substance listed; conditions: 100 kPa, Liquid, x2 = 0; for viscosity: Cone and plate viscometry; for mass density: Vibrating tube method
[2] = Liquid; for viscosity / electrical conductivity: 100 kPa; for viscosity: Cone and plate viscometry; for electrical conductivity: Direct current cell with electrodes; for mass density: 101.33 kPa, Vibrating tube method

O=C1CCCO1 [γ-butyrolactone] + CCCn1cc[n+](C)c1.O=S(=O)([N-]S(=O)(=O)C(F)(F)F)C(F)(F)F
[1]
Conditions	mass density [kg/m3]	viscosity [mPa·s]
293.15 K	1129.2	1.92
298.15 K	1124.26	1.73
303.15 K	1119.33	1.63
308.15 K	1114.31	1.52
313.15 K	1109.23	1.42
318.15 K	1104.1	1.35
323.15 K	1098.88	1.3

CCCn1cc[n+](C)c1.O=S(=O)([N-]S(=O)(=O)C(F)(F)F)C(F)(F)F
[2]
Conditions	electrical conductivity [S/m]	mass density [kg/m3]	viscosity [mPa·s]
293.15 K	0.355	1479.32	54.19
298.15 K	0.435	1474.24	43.94
303.15 K	0.521	1469.4	35.92
308.15 K	0.611	1464.43	30
313.15 K	0.71	1459.44	25.32
318.15 K	0.813	1454.63	21.58
323.15 K	0.923	1449.73	18.82
